# Patent US20230339991A1, “HYPOXIA-ACTIVATED DNA ALKYLATING AGENT AND MEDICAL USE THEREOF” (ASCENTAWITS PHARMACEUTICALS, LTD., priority 2020, published 2023)
# Where “and” joins values, the source holds several entries; their conditions need not be identical. Equal entries are not always repeated. Where two headings read alike, the source gives them in different places.
# What was measured:
# [1] = system: HuPrime model GA6201 human gastric cancer subcutaneous transplantation PDX tumor; test: GA6201 human gastric cancer subcutaneous PDX model; format: in vivo, BALB/c nude mice
# PANC1 cells = test: Clonogenic assay, PANC1; format: cell-based, human; conditions: for IC90: Homo sapiens, PANC-1, 3 h
# Method: (§1) The following PSN-1 cells, PANC1 cells, MiaPaCa-2 cells, H460 cells, DLD-1 WT (wild type) cells, DLD-1 BRCA2 KO (BRCA2 deletion) cells were seeded in 10 cm vitreous cell culture plates at specific cell numbers and incubated for 2 days at 37° C. and under the conditions of 5% CO2, 95% air and 100% relative humidity. On day 3, test compounds TH302 or AST-002-P2 at the specific concentrations were added to the cells, and incubated for 3 hours together with the cells under normoxic (21% O2) and hypoxic conditions (<0.01% O2), respectively. After cells were stimulated by compounds, the cells were washed once with 1×PBS and digested into single cells with pancreatic enzymes for cell counting. The above cells in specific cell numbers were reseeded in a new culture plate and cultured for 7 days to perform single cell colony formation. When single cells in compound culture plates stimulated under normoxic conditions proliferated to about 50 cells, the cultures were removed and stained with 0.5% crystal violet for 40 minutes. After staining, cells were counted for colonies using Colony Counter (VWR) and the IC90 was calculated.
# [2] = system: DLD-1 WT (wild type) cells; test: Clonogenic assay, DLD-1 WT; format: cell-based; conditions: for IC90: Homo sapiens, 3 h
# Method: as §1
# PSN-1 cells = test: Clonogenic assay, PSN-1; format: cell-based, human; conditions: for IC90: Homo sapiens, PSN1, 3 h; for HCR: IC90 ratio normoxic/N2
# Method: as §1
# [3] = system: DLD-1 BRCA2 KO (BRCA2 deletion) cells; test: Clonogenic assay, DLD-1 BRCA2 KO; format: cell-based; conditions: for IC90: Homo sapiens, 3 h
# Method: as §1
# [4] = Blood-brain barrier experiment, brain and plasma concentrations after IV dosing; format: in vivo, CD-1 mice; conditions: CD-1, mouse
# [5] = as above; format: in vivo, CD-1 mice; conditions: for half-life: read-out: T½ (converted)
# Method: Three CD-1 […] were administered 1 mg/kg of the test compound intravenously at each time point. Blood and brain tissue were collected at 5 min, 15 min, 1 h, 2 h, 4 h and 8 h after administration.
# [6] = 21% O2, read-out: IC90 Normoxia
# [7] = <0.01% O2, read-out: IC90 Hypoxia
# [8] = CD-1, mouse, plasma, IV 1 mg/kg
# [9] = IV 1 mg/kg, 0.083 h, single animals, 1 mg/kg
# [10] = IV 1 mg/kg, 0.25 h, single animals, 1 mg/kg
# [11] = IV 1 mg/kg, 1 h, single animals, 1 mg/kg
# [12] = IV 1 mg/kg, 2 h, single animals, 1 mg/kg
# [13] = IV 1 mg/kg, 4 h, single animals
# [14] = IV 1 mg/kg, 8 h, single animals
smiles,measurement,setting,value
"Cn1c(COP(=O)(NCCBr)NCCBr)cnc1[N+](=O)[O-] [TH-302, Evofosfamide]",tumor volume,"[1]; Group 02, 60 mg/kg i.p., day 3",122.22 mm^3
same,tumor volume,"[1]; Group 02, 60 mg/kg i.p., day 7",129.39 mm^3
same,tumor volume,"[1]; Group 02, 60 mg/kg i.p., day 10",175.00 mm^3
same,tumor volume,"[1]; Group 02, 60 mg/kg i.p., day 14",190.74 mm^3
same,tumor volume,"[1]; Group 02, 60 mg/kg i.p., day 17",189.23 mm^3
same,tumor volume,"[1]; Group 02, 60 mg/kg i.p., day 21",217.96 mm^3
same,tumor volume,"[1]; Group 02, 60 mg/kg i.p., day 24",225.66 mm^3
same,tumor volume,"[1]; Group 02, 60 mg/kg i.p., day 28",247.04 mm^3
same,tumor volume,"[1]; Group 02, 60 mg/kg i.p., day 31",265.76 mm^3
same,tumor volume,"[1]; Group 02, 60 mg/kg i.p., day 35",324.51 mm^3
same,tumor volume,"[1]; Group 02, 60 mg/kg i.p., day 38",371.02 mm^3
same,tumor volume,"[1]; Group 02, 60 mg/kg i.p., day 42",403.47 mm^3
same,tumor volume,"[1]; Group 02, 60 mg/kg i.p., day 45",484.83 mm^3
same,tumor volume,"[1]; Group 02, 60 mg/kg i.p., day 49",578.60 mm^3
same,tumor volume,"[1]; Group 02, 60 mg/kg, QDx5/week × 2 wks, i.p., day 0",94.15 mm^3
same,IC90,PANC1 cells; [6],> 100000 nM
same,IC90,PANC1 cells; [7],7290 nM
same,HCR,PANC1 cells; IC90 ratio normoxic/N2,>13.7
same,IC90,[2]; [6],26200 nM
same,IC90,[2]; [7],210 nM
same,HCR,[2]; IC90 ratio normoxic/N2,125
same,IC90,PSN-1 cells; [6],30500 nM
same,IC90,PSN-1 cells; [7],164 nM
same,HCR,PSN-1 cells,186
same,IC90,[3]; [6],21900 nM
same,IC90,[3]; [7],3.01 nM
same,HCR,[3]; IC90 ratio normoxic/N2,7277
"O=[N+]([O-])c1ccc([C@@H](OP(=O)(N2CC2)N2CC2)C(F)(F)F)c2ccccc12 (single isomer, unassigned) [Compound C]",IC90,PANC1 cells; [6],> 10000 nM
same,IC90,PANC1 cells; [7],> 1000 nM
same,Kp at 0.25 h,"[4]; brain/plasma, iv, 1 mg/kg, 0.25 h, read-out: Mean Ratio (Brain/Plasma)",0.86
same,Kp at 2 h,"[4]; brain/plasma, iv, 1 mg/kg, 2 h, single animals, read-out: Ratio (Brain/Plasma)",1.35
same,Cmax,"[4]; brain tissue, IV 1 mg/kg",445 ng/g
same,Tmax,"[4]; brain tissue, IV 1 mg/kg",4.8 min
same,AUC,"[4]; plasma, IV 1 mg/kg",190 ng·h/mL
same,IC90,[2]; [6],> 140 nM
same,IC90,[2]; [7],> 140 nM
same,concentration at 0.083 h,"[5]; CD-1, mouse, brain, iv, 1 mg/kg, IV 1 mg/kg, 0.083 h, single animals, read-out: Brain concentration",415 ng/g
same,concentration at 0.25 h,"[5]; CD-1, mouse, brain, iv, 1 mg/kg, IV 1 mg/kg, 0.25 h, single animals, read-out: Brain concentration",146 ng/g
same,concentration at 1 h,"[5]; CD-1, mouse, brain, iv, 1 mg/kg, IV 1 mg/kg, 1 h, single animals, read-out: Brain concentration",28.6 ng/g
same,Kp at 0.083 h,"[5]; CD-1, mouse, brain/plasma, iv, 1 mg/kg, IV 1 mg/kg, 0.083 h, read-out: Mean Ratio (Brain/Plasma)",1.07
same,Kp at 0.083 h,"[5]; CD-1, mouse, brain/plasma, iv, 1 mg/kg, IV 1 mg/kg, 0.083 h, single animals, read-out: Ratio (Brain/Plasma)",0.99
same,Kp at 0.25 h,"[5]; CD-1, mouse, brain/plasma, iv, 1 mg/kg, IV 1 mg/kg, 0.25 h, single animals, read-out: Ratio (Brain/Plasma)",0.82
same,Kp at 1 h,"[5]; CD-1, mouse, brain/plasma, iv, 1 mg/kg, IV 1 mg/kg, 1 h, read-out: Mean Ratio (Brain/Plasma)",0.54
same,Kp at 1 h,"[5]; CD-1, mouse, brain/plasma, iv, 1 mg/kg, IV 1 mg/kg, 1 h, single animals, read-out: Ratio (Brain/Plasma)",0.52
same,Kp at 2 h,"[5]; CD-1, mouse, brain/plasma, iv, 1 mg/kg, IV 1 mg/kg, 2 h, read-out: Mean Ratio (Brain/Plasma)",1.11
same,Kp,"[5]; CD-1, mouse, brain/plasma, iv, 1 mg/kg, IV 1 mg/kg, read-out: AUClnf Ratio (Brain/Plasma)",0.73
same,concentration at 0.083 h,"[5]; CD-1, mouse, plasma, iv, 1 mg/kg, IV 1 mg/kg, 0.083 h, single animals, read-out: Plasma concentration",417 ng/mL
same,concentration at 0.25 h,"[5]; CD-1, mouse, plasma, iv, 1 mg/kg, IV 1 mg/kg, 0.25 h, single animals, read-out: Plasma concentration",179 ng/mL
same,half-life,"[5]; CD-1, mouse, brain tissue, IV 1 mg/kg",21 min
same,AUC(0-t),[5]; [8],188 ng·h/mL
same,C0,[5]; [8],694 ng/mL
same,half-life,[5]; [8],18 min
same,Brain concentration,[5]; [9],541.99 ng/g and 377.29 ng/g
same,Plasma concentration,[5]; [9],390.41 ng/mL and 456.85 ng/mL
same,Ratio (Brain/Plasma),[5]; [9],1.39 and 0.83
same,Brain concentration,[5]; [10],131.63 ng/g and 120.75 ng/g
same,Plasma concentration,[5]; [10],132.02 ng/mL and 154.92 ng/mL
same,Ratio (Brain/Plasma),[5]; [10],1.00 and 0.78
same,Brain concentration,[5]; [11],18.01 ng/g and 15.01 ng/g
same,Plasma concentration,[5]; [11],54.81 ng/mL and 25.61 ng/mL and 37.23 ng/mL
same,Ratio (Brain/Plasma),[5]; [11],0.70 and 0.40
same,Brain concentration,[5]; [12],8.31 ng/g and 1.90 ng/g and BLOQ
same,Plasma concentration,[5]; [12],4.69 ng/mL and 2.16 ng/mL and 1.64 ng/mL
same,Ratio (Brain/Plasma),[5]; [12],0.88
same,Brain concentration,[5]; [13],BLOQ
same,Plasma concentration,[5]; [13],BLOQ
same,Brain concentration,[5]; [14],BLOQ
same,Plasma concentration,[5]; [14],BLOQ
same,AUClast,"[5]; brain tissue, IV 1 mg/kg",136.59 ng·h/g
same,AUClnf,"[5]; brain tissue, IV 1 mg/kg",138.68 ng·h/g
same,MRTlnf_obs,"[5]; brain tissue, IV 1 mg/kg",20.4 min
same,blood-brain barrier penetration,[5]; detected in brain tissue,can penetrate the blood-brain barrier
same,Cl_obs,"[5]; plasma, IV 1 mg/kg",87.92 mL/min/kg
same,MRTlnf_obs,"[5]; plasma, IV 1 mg/kg",19.8 min
same,Vss_obs,"[5]; plasma, IV 1 mg/kg",1.73 L/kg
same,IC90,PSN-1 cells; [6],> 1000 nM
same,IC90,PSN-1 cells; [7],286 nM
same,HCR,PSN-1 cells,>3.5
same,IC90,[3]; [6],> 10000 nM
same,IC90,[3]; [7],112 nM
same,HCR,[3]; IC90 ratio normoxic/N2,>89
same,HCR,"[3]; IC90 ratio normoxic/N2, listed as compound C",> 89
